# Measurements: US6982348B2, “Aminoethanol derivatives” (Takeda Pharmaceutical Company Limited, priority 2001, dated 2006)
row,Compound,melting point [°C]
1,"O=C(N[C@H](Cc1ccc(C(F)(F)F)cc1)[C@@H](O)c1ccc(F)cc1)c1ccc2ccccc2c1 (racemic) [Example 63, N-((1RS,2SR)-2-(4-fluorophenyl)-2-hydroxy-1-((4-(trifluoromethyl)phenyl)methyl)ethyl)-2-naphthalenecarboxamide]",174 to 175
2,"COCc1ccc(C(=O)N[C@H](Cc2ccc(C(F)(F)F)cc2)[C@@H](O)c2ccc(F)cc2)c2ccccc12 (racemic) [Example 65, N-((1RS,2SR)-2-(4-fluorophenyl)-2-hydroxy-1-((4-(trifluoromethyl)phenyl)methyl)ethyl)-4-((methyloxy)methyl)-1-naphthalenecarboxamide]",170 to 171
3,"O=C(N[C@H](Cc1ccc(C(F)(F)F)cc1)[C@@H](O)c1ccc(F)cc1)c1cccc2cc3ccccc3cc12 (racemic) [Example 66, N-((1RS,2SR)-2-(4-fluorophenyl)-2-hydroxy-1-((4-(trifluoromethyl)phenyl)methyl)ethyl)-1-anthracenecarboxamide]",227 to 228
4,"O=C(N[C@H](Cc1ccc(C(F)(F)F)cc1)[C@@H](O)c1ccc(F)cc1)c1ccccc1 (racemic) [Example 68, N-[(1RS,2SR)-2-(4-fluorophenyl)-2-hydroxy-1-[4-(trifluoromethyl)benzyl]ethyl]benzamide]",193 to 194
5,"O=C(Cc1ccccc1)N[C@H](Cc1ccc(C(F)(F)F)cc1)[C@@H](O)c1ccc(F)cc1 (racemic) [Example 69, N-((1RS,2SR)-2-(4-fluorophenyl)-2-hydroxy-1-((4-(trifluoromethyl)phenyl)methyl)ethyl)-2-phenylacetamide]",173 to 174
6,"O=C(N[C@H](Cc1ccc(C(F)(F)F)cc1)[C@@H](O)c1ccc(F)cc1)C(F)(F)F (racemic) [Example 70, N-[(1RS,2SR)-2-(4-fluorophenyl)-2-hydroxy-1-[4-(trifluoromethyl)benzyl]ethyl]-2,2,2-trifluoroacetamide]",162 to 163
7,"O=C(N[C@H](Cc1ccc(C(F)(F)F)cc1)[C@@H](O)c1ccc(F)cc1)c1ccc2c(c1)OCO2 (racemic) [Example 72, N-((1RS,2SR)-2-(4-fluorophenyl)-2-hydroxy-1-((4-(trifluoromethyl)phenyl)methyl)ethyl)-1,3-benzodioxole-5-carboxamide]",180 to 181
8,"Cc1oc(C(C)C)c(C(=O)N[C@H](Cc2ccc(C(F)(F)F)cc2)[C@@H](O)c2ccc(F)cc2)c1-c1ccc(F)cc1 (racemic) [Example 73, 4-(4-fluorophenyl)-N-[(1RS,2SR)-2-(4-fluorophenyl)-2-hydroxy-1-[4-(trifluoromethyl)benzyl]ethyl]-5-methyl-2-(1-methylethyl)furan-3-carboxamide]",134 to 136
9,"O=C(N[C@H](Cc1ccc(C(F)(F)F)cc1)[C@@H](O)c1ccc(F)cc1)c1cccc(-c2ccccc2)c1 (racemic) [Example 74, N-((1RS,2SR)-2-(4-fluorophenyl)-2-hydroxy-1-((4-(trifluoromethyl)phenyl)methyl)ethyl)[1,1′-biphenyl]-3-carboxamide]",165 to 166
10,"CN(C)c1ccc(C(=O)N[C@H](Cc2ccc(C(F)(F)F)cc2)[C@@H](O)c2ccc(F)cc2)c2ccccc12 (racemic) [Example 75, 4-(dimethylamino)-N-((1RS,2SR)-2-(4-fluorophenyl)-2-hydroxy-1-((4-(trifluoromethyl)phenyl)methyl)ethyl)-1-naphthalenecarboxamide]",169 to 170
11,"O=C(N[C@H](Cc1ccc(C(F)(F)F)cc1)[C@@H](O)c1ccc(F)cc1)c1cc(Cl)cc2ccccc12 (racemic) [Example 76, 3-chloro-N-[(1RS,2SR)-2-(4-fluorophenyl)-2-hydroxy-1-[4-(trifluoromethyl)benzyl]ethyl]naphthalene-1-carboxamide]",220 to 221
